Key:
Male Long Evans rats = experiment: In vivo antispermatogenic testing in Long Evans rats; details: for Mortality (25 mg/kg) / Response 25 mg/kg: 25 mg/kg single i.p. injection; for Response 25 mg/kg / Response 200 mg/kg: animals responding out of animals surviving, five days following injection; for Mortality (200 mg/kg) / Response 200 mg/kg: 200 mg/kg single i.p. injection; for Staging 25 mg/kg / Staging 200 mg/kg: seminiferous tubule staging; for Staging 25 mg/kg: 25 mg/kg i.p.; for Staging 200 mg/kg: 200 mg/kg i.p.
[1] = system: Salmonella Typhimurium TA 100; experiment: Ames test for mutagenicity (plate assay, colony count); details: 48 hours at 37° C.; for Ames test (+)S9 0.1 mg/pl. / Ames test (+)S9 1 mg/pl. / Ames test (+)S9 10 mg/pl.: (+)S9 mix; for Ames test (−)S9 0.1 mg/pl. / Ames test (−)S9 1 mg/pl. / Ames test (−)S9 10 mg/pl.: (−)S9 mix

| SMILES | Mortality (25 mg/kg) (Male Long Evans rats) | Response 25 mg/kg (Male Long Evans rats) | Mortality (200 mg/kg) (Male Long Evans rats) | Response 200 mg/kg (Male Long Evans rats) | Ames test (+)S9 0.1 mg/pl. [1] | Ames test (+)S9 1 mg/pl. [1] | Ames test (+)S9 10 mg/pl. [1] | Ames test (−)S9 0.1 mg/pl. [1] | Ames test (−)S9 1 mg/pl. [1] | Ames test (−)S9 10 mg/pl. [1] | Staging 25 mg/kg (Male Long Evans rats) | Staging 200 mg/kg (Male Long Evans rats) |
| --- | --- | --- | --- | --- | --- | --- | --- | --- | --- | --- | --- | --- |
| O=C(O)c1nn(Cc2ccc(Cl)cc2Cl)c2ncccc12 [RC-MC-86, 1-(2,4-dichlorobenzyl)-1H-pyrazolo[3,4-b]pyridine-3-carboxylic acid] | 0/5 | 0/5 | 0/5 | 5/5 | Pass | Pass | Pass | Pass | Pass | Pass |  |  |
| NNC(=O)c1nn(Cc2ccc(Cl)cc2Cl)c2ccccc12 [AF2364, reference compound] | 0/5 | 3/5 | 0/5 | 5/5 |  |  |  |  |  |  | 3.5 | 2.1 |
| O=C(O)/C=C/c1nn(Cc2ccc(Cl)cc2Cl)c2ccccc12 [AF2785, reference compound] | 0/5 | 1/5 | 2/6 | 3/4 |  |  |  |  |  |  | 5.5 | 3.4 |
| NNC(=O)c1nn(Cc2ccc(F)cc2F)c2cc(C(F)(F)F)ccc12 [JWS-1-274, 1-(2,4-difluorobenzyl)-6-trifluoromethyl-1H-indazole-3-carboxylic acid hydrazide] | 0/5 | 0/5 | 0/5 | 0/5 | Pass | Pass | Pass | Pass | Pass | Pass |  |  |
| O=C(O)c1nn(Cc2ccc(Cl)cc2Cl)c2cc(Cl)ccc12 [DD-MC-I, 6-chloro-1-(2,4-dichlorobenzyl)-1H-indazole-3-carboxylic acid] | 0/5 | 0/5 | 0/5 | 2/5 | Pass | Pass | Pass | Pass | Pass | Pass |  |  |
| COC(=O)c1nn(Cc2ccc(F)cc2F)c2cc(C(F)(F)F)ccc12 [JWS-1-270, 1-(2,4-difluorobenzyl)-6-trifluoromethyl-1H-indazole-3-carboxylic acid methyl ester] | 0/5 | 0/5 | 0/5 | 0/5 | Pass | Pass | Pass | Pass | Pass | Pass |  |  |
| COC(=O)c1nn(Cc2ccc(Cl)cc2Cl)c2ccc(C(F)(F)F)cc12 [JWS-1-254, 1-(2,4-dichlorobenzyl)-5-trifluoromethyl-1H-indazole-3-carboxylic acid methyl ester] | 0/5 | 0/5 | 0/5 | 0/5 | Pass | Pass | Pass | Pass | Pass | Pass |  |  |
| NNC(=O)c1nn(Cc2ccc(Cl)cc2Cl)c2cc(C(F)(F)F)ccc12 [RC-MC-101, 1-(2,4-dichlorobenzyl)-6-trifluoromethyl-1H-indazole-3-carboxylic acid hydrazide] | 0/5 | 0/5 | 0/5 | 0/5 | Pass | Pass | Pass | Pass | Pass | Pass |  |  |
